Assay results reported in patent publication US12083082B2, “Methods for treating neurodegenerative disorders” (Alzheon, Inc., priority 2018, dated 2024).
“And” between values parts separate entries of the source, which are not always exact repeats. Identical values can stand only once. Like-named read-outs stand apart in the source and are kept apart here.

What was measured:
[1] = CSF concentrations of 3-SPA at Week 78 in North American Phase 3 tramiprosate trial (LC-MS/MS); assay type: in vivo, human; details: 150 mg BID tramiprosate; for concentration at 78 week: human, CSF, oral, 150 mg BID
Method: The samples were withdrawn from the freezer and shipped on dry ice to Nextcea Inc. (Woburn, MA) and stored in a freezer set to maintain−80° C. after receipt. The CSF collection and storage were carried out after subjects signed an informed consent in accordance with the ethical guidelines in the Czech Republic and good clinical practice, and according to the widely recognized consensus protocol for the standardization of CSF collection and biobanking (Viola et al., Amyloid β oligomers in Alzheimer's disease pathogenesis, treatment, and diagnosis. Acta Neuropathol 2015; 129:183-206; and Vanderstichele et al. Standardization of preanalytical aspects of cerebrospinal fluid biomarker testing for Alzheimer's disease diagnosis: A consensus paper from the Alzheimer's Biomarkers Standardization Initiative. Alzheimers Dement 2012; 8(1):65-73). Commercial ELISA kits (Innogenetics NV, Ghent, Belgium) were used for dementia biomarker analyses (Aβ1-42, tau protein, and phospho-tau), and cut off values derived from a validation study were used. CSF concentrations of 3-SPA were also quantified in 12 patients receiving the 150 mg BID dose of tramiprosate at Week 78 of the Phase 3 North American AD trial.
The 3-SPA reference material and human CSF samples were mixed with N-ethyl-N′-(3-dimethylaminopropyl) carbodiimide (EDC) and 2,2,2-trifluro ethylamine (TFEA). The samples were vortexed and reacted at room temperature for 30 minutes. The reactions were centrifuged at 4500 rpm for 5 minutes. The supernatant was transferred to a new plate for analysis. 3-SPA was identified and characterized using LC-MS and LC-MS/MS. Injections were made onto a Thermo Scientific AQUASIL 5 μm, 50×2.1 mm column using a Shimadzu autosampler and UPLC pump. Mobile phase A was 0.1% trifluoroacetic acid in water (v/v). Mobile phase B was 0.1% formic acid in 90/10 acetonitrile/water (v/v). The flow rate was 0.35 mL/min. The total running time per sample was 4 min. An API 6500 triple quadrupole mass spectrometer was used for detection. Data were acquired in negative LC-MS and LC-MS/MS modes. Representative chromatograms of 3-SPA in crude native material and human CSF derivatized with EDC and TFEA are shown in FIG. 7, FIG. 8 Panel A, and FIG. 8 Panel B. LC-MS and LC-MS/MS data were acquired using Analyst software (AB Sciex, Foster City, CA). LOQ for the LC-MS/MS method was 0.1 ng/ml with a dynamic range of 0.1 to 1000 ng/ml (r=0.99688 and % CV 5.8%±2.0; data on file). 3-SPA was identified in human CSF by matching the chromatographic retention time and by co-elution of the LC-MS/MS transition ions to the authentic 3-SPA reference standard (synthesized by Paraza Pharma, Montreal, Canada).
The levels of 3-SPA of in patients with a variety of cognition impairing diseases, including AD, ranged from 4.15 to 27.7 nM (0.64-4.27 ng/ml) (Table 1). When related to the CSF concentrations of Aβ42 monomers in AD patients (0.04 nM to 0.1 nM) (Bakan et al., ProDy: protein dynamics inferred from theory and experiments. Bioinformatics 2011; 27:1575-7; Shaw et al. Cerebrospinal fluid biomarker signature in Alzheimer's disease neuroimaging initiative subjects. Ann Neurol 2009; 65:403-13; Pannee et al. Reference measurement procedure for CSF Abeta1-42 and the CSF Abeta1-42/Abeta1-40 ratio—a crossvalidation study against Amyloid PET. J. Neurochem 2016; and Lambert et al. Diffusible, nonfibrillar ligands derived from A 1-42 are potent central nervous system neurotoxins. PNAS. 1998; 95:6448-53), there is an approximately 40-700 fold excess of 3-SPA over soluble Aβ42 monomers, which falls within the range where partial Aβ anti-oligomer aggregation activity may occur in some patients (Table 3). Furthermore, retrospective analyses of the CSF of a subset of patients from the tramiprosate Phase 3 trial were also evaluated for presence of 3-SPA, the primary metabolite of tramiprosate. […]

CYP = test: Metabolism and CYP interactions of 3-SPA
Description: ALZ-801 is a valine conjugate of tramiprosate that has been optimized for improved pharmacokinetic properties and gastrointestinal tolerability. Chronic toxicology studies required for the advancement of ALZ-801 to Phase 3 have been completed, including the nonclinical safety characterization of ALZ-801, and the safety bridge to the extensive nonclinical toxicology and safety data for tramiprosate. […] See Hey et al., Clinical Pharmacokinetics and Safety of ALZ-801, a Novel Prodrug of Tramiprosate in Development for the Treatment of Alzheimer's Disease. Clin Pharmacokinetics 2018; 315-333 and Kocis et al., Elucidating the Abeta42 Anti-Aggregation Mechanism of Action of Tramiprosate in Alzheimer's Disease: Integrating Molecular Analytical Methods. Pharmacokinetic and Clinical Data. CNS Drugs 2017; 31:495-509. […] Both ALZ-801 and tramiprosate have consistent elimination half-life in plasma across species following repeated oral doses of ALZ-801, indicating no potential for accumulation after chronic dosing. Following conversion of ALZ-801 to tramiprosate, tramiprosate is consistently metabolized in vivo into a single major metabolite, 3-sulfopropanoic acid (3-SPA), in humans, mice, rats, dogs and minipigs.

With O=C(O)CCS(=O)(=O)O [3-SPA, 3-sulfopropanoic acid] the “CSF concentration of 3-SPA, Median” value ([1]; Week 78) was 19.3 ng/ml and 127.5 nM, the “CSF concentration of 3-SPA, Minimum-maximum” value ([1]; Week 78) was 17.3-35.7 ng/ml and 114.3-235.8 nM and the “increase of mean CSF 3-SPA over levels observed in drug naïve patients” value ([1]; Week 78) was 12.6 fold. The “CSF concentration of 3-SPA, Mean ± SD” value ([1]; Week 78, n=6) was 22.3 ± 7.9 ng/ml and 147 ± 51.3 nM, the concentration at 78 week ([1]; Week 78, n=6, read-out: CSF concentration of 3-SPA, Mean ± SD) was 147 nM and the concentration at 78 week ([1]; Week 78, read-out: CSF concentration of 3-SPA, Minimum-maximum) was 114 to 236 nM. For the same compound, the “Further metabolism or CYP interactions (in words)” value (CYP) was “No further metabolism or CYP interactions have been observed”.
